{
  "source": "paper PMC10247507",
  "about": "(Journal of immunology (Baltimore, Md. : 1950), 2023)",
  "test_system": "naïve FluNP CD4 T cells",
  "assay": "Activation of naïve FluNP CD4 T cells by peptide-pulsed BMDC in vitro",
  "type": "cell-based, mouse",
  "conditions": "CD69, CD25, Nur77 assays, 2d in vitro",
  "data": [
    {"substance": "NP311–325: immunodominant, highly conserved IAV nucleoprotein (NP) epitope presented by I-A^b; parent peptide of the panel (QVYSLIRPNENPAHK)", "values": [
      {"measurement": "dose for peak responses, lower than the middle peptides (A7, K5)", "result": 100, "unit": "fold"}
    ]}
  ]
}
